Assays:
[1] = Toxicity in BALB/c mouse assessed as body weight loss at 10 mg/kg, iv administered once daily for 21 days; format: organism-based; details: in vivo, 504 h, time 21 day
[2] = Metabolic stability in human liver microsome assessed as intrinsic clearance measured upto 45 mins by LC/MS analysis; format: ADME; details: liver microsomes, read-out: CLH
[3] = Initial plasma concentration in Sprague-Dawley rat 2 mg/kg, iv by LC-MS/MS analysis; format: ADME, organism-based
[4] = AUC (0 to t) in Sprague-Dawley rat 2 mg/kg, iv by LC-MS/MS analysis; format: ADME, organism-based; details: in vivo

**Q.** What does the source list for `CC(C)(c1ccc(OCCNc2cccc3c2C(=O)N(C2CCC(=O)NC2=O)C3=O)cc1)c1ccc(OCc2cccc(N3CCOCC3)n2)cc1` (centres undefined)?
**A.** Activity [1]: Non-toxic; CLint scaled [2]: 43.1 mL/min/kg; C0 [3]: 13900 ng/mL; AUC(0-t) [4]: 2210 ng·h/mL
